The values below come from ChEMBL document CHEMBL1799913, “A combined spectroscopic and crystallographic approach to probing drug-human serum albumin interactions” (Bioorg Med Chem, 2010).

The nature of data set [1]: Octanol-buffer partition coefficient, log D of the compound at pH 7.4 by shake-flask method.
Data set [2] has as its target T1, Albumin (Homo sapiens, UniProt P02768). The conditions noted are these: isolated protein.
Description: Binding affinity to fatty acid-containing human serum albumin by equilibrium dialysis
Data set [3] has as its target T1, Albumin. The conditions noted are these: isolated protein. The source holds these as a separate data set.
Description: Binding affinity to fatty acid-free human serum albumin by equilibrium dialysis
Data set [4] in a line: Dissociation constant, pKa of the compound by spectrophotometric titration. In kind it is physicochemical.
Data set [5] can be described thus: physchem. The settings on record: phosphate buffer, pH 7.4.
Description: Aqueous solubility of the compound in phosphate buffer solution of pH 7.4 after 24 hrs by LC-UV analysis
Data set [6] can be described thus: Lipophilicity, log P of the compound in octanol.
Data set [7] has as its target T2, human serum albumin site 2 (Homo sapiens, UniProt P02768). Nature of the data set: in vitro. The settings on record: pH 7.4, probe dansylsarcosine.
Description: Displacement of radiolabeled dansylsarcosine from human serum albumin site 2 in phosphate buffer at pH 7.4 at 100 uM by fluorescence spectroscopy
The target in data set [8] is T3, human serum albumin site 1 (Homo sapiens, UniProt P02768). Briefly: in vitro. The conditions noted are these: pH 7.4, probe warfarin.
T3 sequence (P02768 whole entry): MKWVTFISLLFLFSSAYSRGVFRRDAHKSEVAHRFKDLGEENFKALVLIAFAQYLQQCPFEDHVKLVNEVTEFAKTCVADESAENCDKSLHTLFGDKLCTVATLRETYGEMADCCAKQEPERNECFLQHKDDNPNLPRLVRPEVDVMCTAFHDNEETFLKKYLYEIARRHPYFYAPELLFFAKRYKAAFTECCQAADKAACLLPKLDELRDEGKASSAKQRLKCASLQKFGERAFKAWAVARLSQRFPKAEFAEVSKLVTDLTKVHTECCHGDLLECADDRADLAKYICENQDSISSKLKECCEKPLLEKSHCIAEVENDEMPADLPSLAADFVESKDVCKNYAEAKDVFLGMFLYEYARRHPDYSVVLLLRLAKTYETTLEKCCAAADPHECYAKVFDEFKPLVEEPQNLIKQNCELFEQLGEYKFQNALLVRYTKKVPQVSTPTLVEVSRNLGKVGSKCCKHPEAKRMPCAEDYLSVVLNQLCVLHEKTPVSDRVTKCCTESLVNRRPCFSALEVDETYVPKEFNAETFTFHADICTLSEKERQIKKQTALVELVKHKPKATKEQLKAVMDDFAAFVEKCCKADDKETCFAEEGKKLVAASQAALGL
Description: Displacement of radiolabeled warfarin from human serum albumin site 1 in phosphate buffer at pH 7.4 at 100 uM by fluorescence spectroscopy
Data set [9] has as its target T3, human serum albumin site 1. Nature of the data set: in vitro. The conditions noted are these: fatty acid containing human serum albumin, pH 7.4, probe warfarin.
Description: Displacement of radiolabeled warfarin from fatty acid containing human serum albumin site 1 in phosphate buffer at pH 7.4 at 12 uM by fluorescence spectroscopy
Data set [10] addresses T2, human serum albumin site 2. Nature of the data set: in vitro. The conditions noted are these: fatty acid-free human serum albumin, pH 7.4, probe dansylsarcosine.
Description: Displacement of radiolabeled dansylsarcosine from fatty acid-free human serum albumin site 2 in phosphate buffer at pH 7.4 at 12 uM by fluorescence spectroscopy
The target of data set [11] is T2, human serum albumin site 2. Briefly: in vitro. The conditions noted are these: fatty acid containing human serum albumin, pH 7.4, probe dansylsarcosine.
Description: Displacement of radiolabeled dansylsarcosine from fatty acid containing human serum albumin site 2 in phosphate buffer at pH 7.4 at 12 uM by fluorescence spectroscopy
The target of data set [12] is T3, human serum albumin site 1. Briefly: in vitro. The settings on record: fatty acid-free human serum albumin, pH 7.4, probe warfarin.
Description: Displacement of radiolabeled warfarin from fatty acid-free human serum albumin site 1 in phosphate buffer at pH 7.4 at 12 uM by fluorescence spectroscopy
The target of data set [13] is T1, Albumin. Briefly: Binding affinity to human serum albumin by equilibrium dialysis. The data set is classed as ADME. The settings on record: isolated protein. A general note: Equilibrium dialysis compares concentrations on both sides of a semipermeable membrane.
Data set [14] addresses T3, human serum albumin site 1. Briefly: Displacement of […] warfarin from human serum albumin site 1 in phosphate buffer at pH 7.4 at 4 uM by fluorescence spectroscopy. The settings on record: pH 7.4, probe warfarin, read-out: Activity.
For data set [15], the target named is T2, human serum albumin site 2. Briefly: Displacement of […] dansylsarcosine from human serum albumin site 2 in phosphate buffer at pH 7.4 at 4 uM by fluorescence spectroscopy. The settings on record: pH 7.4, probe dansylsarcosine, read-out: Activity.

In brackets after ≈: the same amount, converted by molar mass.

T2 sequence (P02768 whole entry): as above
T1 sequence (P02768 whole entry): as above

As usually defined, the logD is lipophilicity at a set pH, counting ionised and neutral species. A higher logD goes with a more lipophilic compound. Usually pKa stands for the negative logarithm of the acid dissociation constant. High values mean a weaker acid or stronger base, low ones a stronger acid or weaker base. What is called solubility is the dissolved amount per volume that the medium holds. Read a low solubility as little dissolved substance. Broadly, the logP is the decadic logarithm of the partition coefficient of the neutral form, usually between octanol and water. Read a high logP as a more lipophilic compound. Regarding `O=C(O)C[C@@H]1c2ccccc2C[C@H]1NC(=O)c1cc2cc(F)ccc2[nH]1`, the logD in [1] came to 1.26. In addition, the “log Ks” value in data set [2] was determined as 6.11; in [3], 5.97. In addition, the pKa in data set [4] was 3.95. This compound registered a solubility at 24 h in data set [5] of 1930 µM (≈ 680 µg/mL). The compound also yielded a logP in data set [6] of 4.71.

With `O=C(O)CCC[C@@H]1c2ccccc2C[C@H]1NC(=O)c1cc2cc(F)ccc2[nH]1`, the log distribution coefficient (logD) in data set [1] came to 1.95. In addition, the “log Ks” value in [2] and in data set [3] was 5.41 throughout. The pKa in [4] is 4.24. The compound also returned a solubility at 24 h in data set [5] of 86 µM (≈ 32.7 µg/mL). In data set [6], this compound had a log partition coefficient (logP) of 5.11.

For the compound `CC(=O)Nc1nc(C)c(-c2cnc(F)c(NS(=O)(=O)c3sc(C)nc3C)c2)s1`, the inhibition at 100 µM in data set [7] turned out to be 7%; in data set [8], 6%. The figures for the “log Ks” value in data set [2] and in [3] were 5.62 and 5.88, respectively. Besides, the pKa in [4] was 4.71. The compound also displayed a solubility at 24 h in data set [5] of over 1700 µM.

As to `CC(=O)CC(c1ccc([N+](=O)[O-])cc1)c1c(O)c2ccccc2oc1=O` (stereo not given) [ACENOCOUMAROL], the inhibition at 12 µM in [9] stood at 54.6%; in data set [10], 12.5%; in [11], 39%; in [12], 49.8%.

Take `NS(=O)(=O)c1cc2c(cc1Cl)N=CNS2(=O)=O` [CHLOROTHIAZIDE]: the inhibition at 12 µM in [9] worked out at 16%; in data set [10], 8%; in data set [11] it was 18.8%; in data set [12], 28.9%.

In the case of `CCCNC(=O)NS(=O)(=O)c1ccc(Cl)cc1` [CHLORPROPAMIDE], the inhibition at 12 µM in data set [9] worked out at 18.5%; in [10] it was 28.5%; in [11], 26%; in data set [12] it was 19.2%.

On to `O=C1CN=C(c2ccccc2Cl)c2cc([N+](=O)[O-])ccc2N1` [CLONAZEPAM], for which the inhibition at 12 µM was 3.8% in data set [9], 16.2% in [10], 19.5% in data set [11] and 0% in data set [12].

With `Cc1onc(-c2ccccc2Cl)c1C(=O)N[C@@H]1C(=O)N2[C@@H]1SC(C)(C)[C@@H]2C(=O)O` [CLOXACILLIN], the inhibition at 12 µM was 5.7% in data set [9], 24.1% in data set [10], 18.1% in data set [11] and 0% in [12].

With `CN(C)c1cccc2c(S(=O)(=O)N(C)CC(=O)O)cccc12` [DANSYLSARCOSINE], in data set [13], the “log Ks” value is 5.39.

With `O=c1oc2ccccc2c(O)c1Cc1c(O)c2ccccc2oc1=O` [DICUMAROL], the inhibition at 12 µM was 10.5% in [9], 88.8% in [10], 19.8% in data set [11] and 86.4% in data set [12].

Consider `O=C(O)CCC(=O)c1ccc(-c2ccccc2)cc1` [FENBUFEN], for which the inhibition at 12 µM in data set [9] is 0%; in data set [10], 70%; in data set [11] it was 66.2%; in data set [12], 0%.

As for `O=C(O)c1ccccc1Nc1cccc(C(F)(F)F)c1` [FLUFENAMIC ACID], the “log Ks” value in [13] stood at 6.68. Moreover, the inhibition at 4 µM was 24% in data set [14] and 73% in data set [15]. In addition, the inhibition at 12 µM in data set [9] came to 68.6%; in [10] it was 95.8%; in data set [11], 91.2%; in [12] it was 48.6%.

For the compound `CCN(CC)CCN1C(=O)CN=C(c2ccccc2F)c2cc(Cl)ccc21` [FLURAZEPAM], in [13], the “log Ks” value was determined as 3.38. In addition, the inhibition at 12 µM in data set [9] was determined as 6.3%; in data set [10], 4.3%; in [11], 2.7%; in data set [12], 0%.

With `NS(=O)(=O)c1cc(C(=O)O)c(NCc2ccco2)cc1Cl` [FUROSEMIDE], the inhibition at 12 µM in data set [9] came to 47.3%; in data set [10] it was 19.2%; in data set [11], 49%; in data set [12], 36.2%.

In the case of `COc1ccc(Cl)cc1C(=O)NCCc1ccc(S(=O)(=O)NC(=O)NC2CCCCC2)cc1` [GLYBURIDE], the inhibition at 12 µM in [9] worked out at 50.7%; in data set [10] it was 33.9%; in data set [11] it was 62.2%; in data set [12], 28.6%. In [5], this compound showed a solubility at 24 h of 11 µM (≈ 5.43 µg/mL).

With `Cc1cc(NC(=O)C2=C(O)c3ccccc3S(=O)(=O)N2C)no1` [ISOXICAM], the inhibition at 12 µM in [9] came to 38%; in data set [10] it was 33.1%; in [11], 32.6%; in data set [12], 51.7%.

On to `COc1ccc2cc([C@H](C)C(=O)O)ccc2c1` [NAPROXEN], for which the inhibition at 12 µM in data set [9] came to 38.8%; in data set [10] it was 91.3%; in data set [11], 79.9%; in data set [12], 24.7%.

Turning to `O=C1NC(=O)C(c2ccccc2)(c2ccccc2)N1` [PHENYTOIN], the inhibition at 12 µM is 9.3% in [9], 0% in data set [10], 18.8% in [11] and 4% in data set [12].

`CC(C)NCC(O)COc1cccc2[nH]ccc12` (stereo not given) [PINDOLOL]: the “log Ks” value in [13] amounted to 2.65. Besides, the inhibition at 12 µM came out at 0% in data set [9], 0.2% in [10], 9.5% in data set [11] and 0% in [12].

`CN1C(C(=O)Nc2ccccn2)=C(O)c2ccccc2S1(=O)=O` [PIROXICAM]: the inhibition at 12 µM amounted to 53.5% in [9], 45.5% in [10], 44.8% in data set [11] and 6.7% in data set [12].

Regarding `O=C1C(CC[S+]([O-])c2ccccc2)C(=O)N(c2ccccc2)N1c1ccccc1` (stereo not given) [SULFINPYRAZONE], the inhibition at 12 µM in data set [9] came out at 44.1%; in data set [10] it was 18.6%; in data set [11] it was 34.2%; in data set [12] it was 35.2%.

As for `CC/C(=C(\c1ccccc1)c1ccc(OCCN(C)C)cc1)c1ccccc1` [TAMOXIFEN], the inhibition at 12 µM in [9] turned out to be 0%; in data set [10], 16.3%; in data set [11], 62.2%; in data set [12], 0%.

In the case of `CN1C(C(=O)Nc2ccccn2)=C(O)c2sccc2S1(=O)=O` [TENOXICAM], the inhibition at 12 µM is 61.7% in [9], 27.4% in data set [10], 38.5% in data set [11] and 52.3% in data set [12].

As for `N[C@@H](Cc1c[nH]c2ccccc12)C(=O)O` [TRYPTOPHAN], the inhibition at 12 µM in data set [9] came to 0%; in data set [10], 15.3%; in data set [11], 15.1%; in [12] it was 0%.
